We go through one compound from patent publication US20160281125A1, “ANTIMICROBIAL COMPOUND SUSCEPTIBILITY TEST” (priority 2013, published 2016).

One test deals with K. oxy strain 43086. The experiment in a line: Selective lysis test, BacUni QuickFISH staining (Example 3). The format is cell-based, K. oxytoca. The settings on record: FIG. 4; K. oxy 43086; meropenem 10 μg/ml, 30 min, SDS lysis. An excerpt:
(§1) An alternative to the spectrophotometer-based measurement of changes in turbidity for measuring cell lysis following treatment with the cell lysis conditions in Examples 1 and 2 is to stain samples using a stain that distinguishes between intact cells and lysed cells. In this example staining with BacUni QuickFISH™ was used to identify intact (i.e., non-lysed) cells. BacUN1 is a universal bacteria PNA probe that binds to an rRNA sequence present in most Gram-positive and Gram-negative bacteria. The PNA probe binds to universal rRNA in intact bacterial cells and the entire cell will appears green with fluorescent microscopy. If the bacterial cell had been lysed then the rRNA target would have been released from the bacterial cell and even of somewhat labeled it would not appear as a fluorescent bacterial cell.
An isolated colony from an overnight Tryptocase Soy Agar (TSA) plate of each bacteria was suspended in 1 ml Tryptocase Soy Broth (TSB) in a 5 ml BD polystyrene round bottom tube. TSB cultures were incubated at 37° C. overnight. Ten μl of overnight culture was inoculated into 1 ml TSB and incubated shaking at 37° C. for three hours. Two 250 μl aliquots of each log-phase culture was transferred to two 2 ml Eppendorf microcentrifuge tubes. […] The slide was viewed on fluorescence microscope using 60× oil immersion on Dual TxR/FITC. […]

Test [1] deals with strains previously considered resistant to meropenem. Put plainly: Selective lysis OD600 test, summary over the strains of Table 2. Conditions: 8 of the 9 strains of Table 2. Type of test: cell-based, Klebsiella pneumoniae, Klebsiella oxytoca. On the procedure:
An isolated colony from an overnight Tryptocase Soy Agar (TSA) plate of each bacterial strain was suspended in 1 ml Tryptocasc Soy Broth (TSB) in a 5 ml BD polystyrene round bottom tube. TSB cultures were incubated shaking at 37° C. overnight. Ten of the overnight culture was inoculated into lml TSB and incubated shaking at 37° C. for three hours. Two […] aliquots of each log-phase culture were then transferred to two 2 ml Eppendorf microcentrifuge tubes. One tube contained 5000 of Normal Saline (BD); the second tube contained 5000 Normal Saline with meropenem at 10 μg/ml (final concentration of meropenem of 6.67 10 μg/ml). Tubes were inverted and then incubated at 37° C. stagnant for thirty minutes. Then […] of lysis buffer (0.5% SDS in PSB) (final concentration of SDS of 0.125%) was added to each tube and the tubes were vortexed for 5 seconds. Post incubation, all tubes were spun at 10000 G for 5 minutes. Supernatant was decanted and the pellet resuspended in Normal Saline. Tubes were vortexed again. OD600 was measured using Eppendorf uvettes in a spectrophotometer. The delta between the OD600 of the normal saline control and the OD600 for the test sample exposed to meropenem in normal saline was used to determine susceptibility of the bacterial strain to meropenem. […]

In another test the test system is E. coli strain 23858. The experiment in a line: Selective lysis test, BacUni QuickFISH staining (Example 3). The format is cell-based. The settings on record: FIG. 2; E. coli 23858; meropenem 10 μg/ml, 30 min, SDS lysis.
Text: as §1
(§2) An isolated colony from an overnight Tryptocase Soy Agar (TSA) plate of each bacteria was suspended in 1 ml Tryptocase Soy Broth (TSB) in a 5 ml BD polystyrene round bottom tube. TSB cultures were incubated at 37° C. overnight. Ten μl of overnight culture was inoculated into 1 ml TSB and incubated shaking at 37° C. for three hours. Two 250 μl aliquots of each log-phase culture was transferred to two 2 ml Eppendorf microcentrifuge tubes. One tube contained 500 μl of Normal Saline (BD); the second tube contained 500 μl Normal Saline with meropenem at 10 μg/ml. Tubes were inverted and then incubated at 37° C. stagnant for thirty minutes. Then […] (0.5% SDS in PSB) was added to each tube and the tubes were vortexed for 5 seconds. Post incubation, the entire culture was filtered through a 1 uM polycarbonate 18 mm filter. The filter was transferred to a plain glass slide and placed on a 55° C. heat block. Then 2 drops of 100% methanol were added to adhere the filter to the slide. Then 30 μl of BacUni QuickFISH™ hybridization buffer was added to the slide and a 50×22 mm coverslip was applied. The slide was then incubated at 55° C. for 15 minutes. The slide was viewed on fluorescence microscope using 60× oil immersion on Dual TxR/FITC. Images were taken with a 1 second exposure.

A further test concerns E. coli strain 35218. The test is described as above. Conditions: FIG. 3; E. coli 35218; meropenem 10 μg/ml, 30 min, SDS lysis. Type of test: cell-based.
Text: as §1, §2

Test [2] relates to K. pneumoniae strain BAA1705 KPC+. Described as above. The format is cell-based. The settings on record: FIG. 5, meropenem 10 μg/ml, 30 min, SDS lysis.
Text: as §1, §2

The next test relates to E. coli strain 25922. The description is as above. Type of test: cell-based. Conditions: FIG. 3; E. coli 25922; meropenem 10 μg/ml, 30 min, SDS lysis.
Text: as §1, §2

For test [3], the system named is K. pneumoniae strain 3456. The test is described as above. Conditions: FIG. 1; K. pneumoniae 3456; meropenem 10 μg/ml, 30 min, SDS lysis. Type of test: cell-based.
Text: as §1, §2

Test [4] deals with K. pneumoniae strain 13882. The test is described as above. Type of test: cell-based. The settings on record: FIG. 2; K. pneumoniae 13882; meropenem 10 μg/ml, 30 min, SDS lysis.
Text: as §1, §2

Test [5] deals with K. pneumoniae strain BAA2146 NDM+. The description is as above. The format is cell-based. Conditions: FIG. 5, meropenem 10 μg/ml, 30 min, SDS lysis.
Text: as §1, §2

The test system of test [6] is E. coli strain BAA-197 ESβL. The description is as above. The format is cell-based. Conditions: FIG. 1; E. coli BAA-197 ESβL; meropenem 10 μg/ml, 30 min, SDS lysis.
Text: as §1, §2

As for `C[C@@H](O)[C@H]1C(=O)N2C(C(=O)O)=C(S[C@@H]3CN[C@H](C(=O)N(C)C)C3)[C@H](C)[C@H]12` [meropenem], the “number of BacUni QuickFISH stained cells, treated vs not treated” value in the test with K. oxy strain 43086 is “significant reduction in the number of stained cells”; in the test on E. coli strain 23858, “significant reduction in the number of stained cells”; in the test with E. coli strain 35218, “significant reduction in the number of stained cells”; in [2], “similarity in the number of stained cells”; with E. coli strain 25922, “significant reduction in the number of stained cells”; in [3] it was “significant reduction in the number of stained cells”. The results for the “number of BacUni QuickFISH stained cells, treated vs not treated” value in [4], in [5] and in test [6] were “significant reduction in the number of stained cells”, “similarity in the number of stained cells” and “significant reduction in the number of stained cells”, respectively. The “decrease of OD600 turbidity vs negative control” value in test [1] is recorded as at most 18%.
